The values that follow are results of earlier work, collected in patent US5258185A (priority 1989, dated 1993).

The conditions of data set [1]: e.g. incorporation in melts of high molecular polyethylene glycols.
Experiment in data set [2]: not given
This is another data set of the same source.

Where [3] appears, read: extremely fine crystallizates, surface size 3 to 10 m^2 (DE-OS 23 48 334).

For `COc1ccc(Cl)cc1C(=O)NCCc1ccc(S(=O)(=O)NC(=O)NC2CCCCC2)cc1` [Glibenclamide, N-4-(5-chloro-[2-methoxy-benzamido)ethyl]phenylisulfonyl-N'-cyclohexyl urea], the “water solubility depending on pH” value (acidic range) is reported as “virtually water-insoluble”. Moreover, the solubility in alcohol result (alcohol) is “only moderately soluble”. For the same compound, for the setting “chloroform”, the solubility in chloroform entry is “only moderately soluble”. Moreover, the solubility in ether entry (ether) was “virtually insoluble”. Further, under setting [3], the “solubility and dissolution rate with increase in surface” value was “increase in solubility and dissolution rate”. The solubility in water entry (water) was “virtually insoluble”. Moreover, the “effect of processing at elevated temperatures on stability” value in data set [1] is “detrimental to stability”. Further, in data set [2] (setting [3]), the “bioavailability with increase in surface” value is reported as “improving the bioavailability”. Further, the “drug release and bioavailability of micronized glibenclamide” value in data set [2] (micronized, mean particle size ±5 μm, above all in the presence of tensides) was “improved drug release and bioavailability”.
